Measured values: ChEMBL document CHEMBL1201862, “PubChem BioAssay data set” (2004)
Activity calls are given as the source filed them.

Tests used:
[1] = target: Eukaryotic translation initiation factor 4H (Homo sapiens, UniProt Q15056); experiment: eIF4H binding inhibition – biochemical, uHTS, fluorescence polarization, translation initiation inhibitor project, primary screen (AID 2012)
[2] = target: T1, Polyadenylate-binding protein 1 (Homo sapiens, UniProt P11940); experiment: blockers of PABP interaction with poly(A) – biochemical, fluorescence polarization, […] (AID 2014)
[3] = target: DNA dC->dU-editing enzyme APOBEC-3G (Homo sapiens, UniProt Q9HC16); format: functional;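 also: Dose-response counterscreen measuring inhibition of APOBEC3G DNA deaminase activity, run while confirming APOBEC3A inhibitors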
[4] = target: DNA dC->dU-editing enzyme APOBEC-3A (Homo sapiens, UniProt P31941); experiment: Dose Response confirmation of small molecule APOBEC3A DNA Deaminase Inhibitors via a fluorescence-based single-stranded DNA deaminase assay. [Related pubchem assays (depositor defined):AID493011, AID493024]; format: functional
[5] = target: Bcl-2-like protein 10 (Homo sapiens, UniProt Q9HD36); experiment: Bcl-B/TR3 peptide binding disruption – biochemical, fluorescence polarization, FITC-TR3 peptide, selectivity assay for Bfl-1 inhibitor project, primary screen (AID 748);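 also: fluorescence polarization from a fluorescein-labelled TR3 peptide binding purified Bcl-B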
[6] = viability of HCT116 lacking mutant beta-catenin – cell-based, human colon tumor, dose response (AID 1045); format: functional;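 also: HCT116 colon tumor cells with beta catenin knocked out; cells exposed to compound for 60 hours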
[7] = viability of PTEN-deleted HCT116 cells – cell-based, HCT116 PTEN knockout, dose response (AID 1047); format: functional;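 also: HCT116 colon tumor cells with PTEN knocked out; cells exposed to compound for 60 hours before readout; potency for loss of cell viability measured by luminescence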
[8] = target: T2, Cytochrome P450 2C9 (Homo sapiens, UniProt P11712); details: Potency
[9] = target: T1, Polyadenylate-binding protein 1; experiment: MLLE domain peptide-binding blockers, IC50 – biochemical, fluorescence polarization, FITC-PAM2 peptide, dose response (AID 602259); format: functional; details: read-out: IC50_Mean
[10] = target: T1, Polyadenylate-binding protein 1; experiment: MLLE binding blockers, Cy5 peptide tracer – biochemical, fluorescence polarization, Cy5-PAM2 peptide, secondary, miRNA deadenylation inhibitor project, dose response (AID 602260); format: functional; details: read-out: IC50_Mean
[11] = target: Female germline-specific tumor suppressor gld-1 (Caenorhabditis elegans, UniProt Q17339); experiment: blockers of GLD-1/TGE RNA complex formation – biochemical, fluorescence polarization, C. elegans, dose response (AID 2802);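 also: fluorescence polarization of labeled TGE RNA bound by purified gld-1 protein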
[12] = target: Protein Rev (Human immunodeficiency virus type 1 group M subtype B (isolate HXB2)(HIV-1), UniProt P04618); experiment: blockers of HIV Rev/RRE RNA complex – biochemical, fluorescence polarization, HIV-1, dose response (AID 434976); parameters: species or system Human immunodeficiency virus 1
[13] = target: T3, Eukaryotic translation initiation factor 2-alpha kinase 3 (Homo sapiens, UniProt Q9NZJ5); experiment: Dose response cell-based high-throughput screening assay to measure PERK inhibition. [Related pubchem assays: 1416 ]; format: functional
T3 sequence (Q9NZJ5 whole entry): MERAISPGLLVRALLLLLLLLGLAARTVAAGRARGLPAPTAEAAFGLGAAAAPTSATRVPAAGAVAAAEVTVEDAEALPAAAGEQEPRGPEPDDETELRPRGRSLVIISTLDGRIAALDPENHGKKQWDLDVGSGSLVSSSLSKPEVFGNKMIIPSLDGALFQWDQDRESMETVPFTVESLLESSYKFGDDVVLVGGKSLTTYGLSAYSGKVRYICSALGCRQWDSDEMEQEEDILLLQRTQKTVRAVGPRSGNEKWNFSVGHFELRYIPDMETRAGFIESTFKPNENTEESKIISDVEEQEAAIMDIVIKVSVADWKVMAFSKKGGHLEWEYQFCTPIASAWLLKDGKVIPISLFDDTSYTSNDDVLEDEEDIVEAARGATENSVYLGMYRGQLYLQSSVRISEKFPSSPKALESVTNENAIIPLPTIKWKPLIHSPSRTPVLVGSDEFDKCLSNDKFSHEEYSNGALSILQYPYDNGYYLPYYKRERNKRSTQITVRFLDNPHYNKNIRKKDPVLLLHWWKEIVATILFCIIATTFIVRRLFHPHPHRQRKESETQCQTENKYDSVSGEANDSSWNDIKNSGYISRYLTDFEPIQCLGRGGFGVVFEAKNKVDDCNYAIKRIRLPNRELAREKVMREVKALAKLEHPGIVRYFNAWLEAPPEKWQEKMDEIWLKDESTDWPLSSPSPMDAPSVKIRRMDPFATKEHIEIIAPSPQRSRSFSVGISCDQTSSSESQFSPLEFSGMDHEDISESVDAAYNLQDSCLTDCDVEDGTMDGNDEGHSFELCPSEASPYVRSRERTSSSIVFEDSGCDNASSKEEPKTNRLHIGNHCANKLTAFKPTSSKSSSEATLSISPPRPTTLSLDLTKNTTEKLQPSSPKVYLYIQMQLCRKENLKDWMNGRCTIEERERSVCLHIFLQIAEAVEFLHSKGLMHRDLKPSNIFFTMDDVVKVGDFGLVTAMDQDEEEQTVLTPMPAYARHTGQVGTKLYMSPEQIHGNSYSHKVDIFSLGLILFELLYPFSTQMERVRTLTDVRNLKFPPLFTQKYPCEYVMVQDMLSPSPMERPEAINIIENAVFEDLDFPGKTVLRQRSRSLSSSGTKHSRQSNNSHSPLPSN

[14] = target: T3, Eukaryotic translation initiation factor 2-alpha kinase 3; experiment: Counterscreen assay for PERK inhibitors: Dose response cell-based high throughput screening assay to measure inhibition of PERK at 6 hours. [Related pubchem assays: 1522, 1416 ]; format: functional
[15] = target: Cytochrome P450 2C19 (Homo sapiens, UniProt P33261); experiment: Cytochrome panel assay with activity outcomes. Panel member name: p450-cyp2c19 Compounds with AC50 equal or less than 10 uM are considered active; format: functional
[16] = target: Nonstructural protein 1 (Influenza A virus, UniProt Q194T2); format: functional, Influenza A virus (A/California/07/2009(H1N1))
[17] = target: T2, Cytochrome P450 2C9
[18] = target: Exodeoxyribonuclease V (Escherichia coli (strain K12), UniProt P04993+P07648+P08394); experiment: RecBCD inhibition via phage-restricted bacterial growth – absorbance, V66 E. coli, mutant T4 phage, counter-screen for AddAB inhibitor project, dose response (AID 492957); format: functional, cell-based, Escherichia coli str. K-12 substr. MG1655
[19] = Counterscreen for AddAB inhibitors: absorbance-based bacterial cell-based high throughput dose response assay for inhibitors of bacterial viability. [Related pubchem assays (depositor defined):AID435030, AID449728, AID449731, AID488942, AID488955, AID488956]; format: functional
[20] = target: T4, Replicative DNA helicase DnaB (Mycobacterium tuberculosis, UniProt P9WMR3); experiment: DnaB intein splicing inhibitors, dose response, biochemical, cell-free fluorescence (AID 449749); format: functional
T4 sequence (P9WMR3 whole entry): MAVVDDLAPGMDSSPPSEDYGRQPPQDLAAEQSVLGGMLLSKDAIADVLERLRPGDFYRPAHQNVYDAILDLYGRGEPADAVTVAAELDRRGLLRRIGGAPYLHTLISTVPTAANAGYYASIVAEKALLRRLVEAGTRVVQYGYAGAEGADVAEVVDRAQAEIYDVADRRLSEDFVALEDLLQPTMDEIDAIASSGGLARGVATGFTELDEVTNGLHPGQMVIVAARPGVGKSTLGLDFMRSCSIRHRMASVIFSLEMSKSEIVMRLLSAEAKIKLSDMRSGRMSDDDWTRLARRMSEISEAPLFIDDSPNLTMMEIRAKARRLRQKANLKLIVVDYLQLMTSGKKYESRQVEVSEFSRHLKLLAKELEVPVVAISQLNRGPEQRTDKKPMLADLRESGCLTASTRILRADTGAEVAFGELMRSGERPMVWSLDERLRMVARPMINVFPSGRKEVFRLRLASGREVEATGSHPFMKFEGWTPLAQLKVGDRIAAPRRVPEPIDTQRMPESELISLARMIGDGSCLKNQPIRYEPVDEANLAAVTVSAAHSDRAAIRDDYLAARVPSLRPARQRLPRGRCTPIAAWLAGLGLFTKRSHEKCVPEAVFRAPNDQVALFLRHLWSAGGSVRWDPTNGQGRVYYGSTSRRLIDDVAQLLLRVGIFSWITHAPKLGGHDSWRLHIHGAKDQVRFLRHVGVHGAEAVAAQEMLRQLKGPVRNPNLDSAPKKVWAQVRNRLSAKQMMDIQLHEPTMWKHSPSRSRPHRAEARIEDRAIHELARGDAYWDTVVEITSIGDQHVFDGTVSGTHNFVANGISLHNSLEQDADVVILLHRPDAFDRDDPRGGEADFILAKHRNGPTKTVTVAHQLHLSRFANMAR

[21] = target: E3 ubiquitin-protein ligase XIAP (Homo sapiens, UniProt P98170); experiment: Counter Screen using XIAP-Bir3 for Chemical Antagonists of Bir1/2 domains of IAP-family anti-apoptotic proteins. [Related pubchem assays (depositor defined):AID1018, AID1449, AID1514, AID1638, AID1749, AID1750, AID488957, AID488963]
[22] = target: T5, Protein RecA (Mycobacterium tuberculosis, UniProt P9WHJ3); experiment: Fluorescence Cell-Free Homogeneous Dose Retest to Identify Inhibitors of RecA-Intein Splicing Activity. [Related pubchem assays (depositor defined):AID2097, AID2223, AID489010, AID492950]; format: functional
T5 sequence (P9WHJ3 whole entry): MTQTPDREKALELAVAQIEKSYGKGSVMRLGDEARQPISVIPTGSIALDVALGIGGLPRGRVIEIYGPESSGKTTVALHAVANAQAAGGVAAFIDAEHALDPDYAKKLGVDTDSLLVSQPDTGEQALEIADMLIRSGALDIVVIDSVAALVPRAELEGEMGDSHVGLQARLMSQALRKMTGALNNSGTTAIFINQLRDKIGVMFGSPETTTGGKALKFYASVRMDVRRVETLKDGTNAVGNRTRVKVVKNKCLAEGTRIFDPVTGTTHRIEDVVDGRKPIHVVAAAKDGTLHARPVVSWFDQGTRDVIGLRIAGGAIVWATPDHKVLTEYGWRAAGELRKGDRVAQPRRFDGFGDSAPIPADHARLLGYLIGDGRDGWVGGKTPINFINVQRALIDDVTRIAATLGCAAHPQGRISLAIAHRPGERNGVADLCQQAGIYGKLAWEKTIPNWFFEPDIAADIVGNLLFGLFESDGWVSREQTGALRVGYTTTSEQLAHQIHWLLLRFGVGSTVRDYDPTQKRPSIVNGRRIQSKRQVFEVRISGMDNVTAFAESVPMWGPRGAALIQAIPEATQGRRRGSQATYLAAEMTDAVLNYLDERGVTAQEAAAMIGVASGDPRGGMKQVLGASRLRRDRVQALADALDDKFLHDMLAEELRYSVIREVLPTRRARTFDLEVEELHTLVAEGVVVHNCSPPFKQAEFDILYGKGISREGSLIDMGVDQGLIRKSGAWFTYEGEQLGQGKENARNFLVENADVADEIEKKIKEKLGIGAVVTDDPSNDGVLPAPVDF

[23] = target: Eukaryotic translation initiation factor 4E (Mus musculus, UniProt P63073); experiment: blockers of eIF4G binding by eIF4E – biochemical, TR-FRET, dose response (AID 855); format: functional;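 also: potency for disrupting eIF4E binding to eIF4GI seen as loss of FRET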
[24] = target: Induced myeloid leukemia cell differentiation protein Mcl-1 (Homo sapiens, UniProt Q07820); format: functional
Induced myeloid leukemia cell differentiation protein Mcl-1, sequence (Q07820 whole entry): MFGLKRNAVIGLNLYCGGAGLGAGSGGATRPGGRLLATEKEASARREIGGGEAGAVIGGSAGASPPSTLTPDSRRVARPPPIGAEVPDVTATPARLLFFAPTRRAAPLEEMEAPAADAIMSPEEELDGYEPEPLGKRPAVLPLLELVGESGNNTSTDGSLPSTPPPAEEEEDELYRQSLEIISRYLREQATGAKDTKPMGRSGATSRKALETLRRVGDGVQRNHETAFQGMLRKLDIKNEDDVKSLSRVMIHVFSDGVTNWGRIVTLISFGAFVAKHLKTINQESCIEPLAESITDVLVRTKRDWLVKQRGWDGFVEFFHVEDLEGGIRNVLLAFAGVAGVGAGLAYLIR

T1 sequence (P11940 whole entry): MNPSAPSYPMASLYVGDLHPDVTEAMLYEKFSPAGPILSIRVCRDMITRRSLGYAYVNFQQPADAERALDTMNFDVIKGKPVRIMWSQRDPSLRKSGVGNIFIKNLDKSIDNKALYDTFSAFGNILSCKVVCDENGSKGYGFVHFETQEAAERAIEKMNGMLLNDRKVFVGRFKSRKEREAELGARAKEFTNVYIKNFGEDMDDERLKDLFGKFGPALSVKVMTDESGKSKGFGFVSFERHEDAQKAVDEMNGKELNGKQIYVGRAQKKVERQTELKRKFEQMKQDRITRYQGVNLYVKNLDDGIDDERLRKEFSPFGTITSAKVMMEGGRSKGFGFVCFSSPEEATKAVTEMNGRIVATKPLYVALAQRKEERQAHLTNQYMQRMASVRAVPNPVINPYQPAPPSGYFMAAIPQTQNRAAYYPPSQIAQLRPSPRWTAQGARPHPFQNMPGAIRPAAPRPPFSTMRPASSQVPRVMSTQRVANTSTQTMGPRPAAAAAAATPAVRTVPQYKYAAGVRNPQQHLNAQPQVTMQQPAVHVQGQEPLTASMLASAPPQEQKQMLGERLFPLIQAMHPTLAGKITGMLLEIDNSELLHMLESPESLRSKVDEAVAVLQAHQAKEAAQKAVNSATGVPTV
Bcl-2-like protein 10, sequence (Q9HD36 whole entry): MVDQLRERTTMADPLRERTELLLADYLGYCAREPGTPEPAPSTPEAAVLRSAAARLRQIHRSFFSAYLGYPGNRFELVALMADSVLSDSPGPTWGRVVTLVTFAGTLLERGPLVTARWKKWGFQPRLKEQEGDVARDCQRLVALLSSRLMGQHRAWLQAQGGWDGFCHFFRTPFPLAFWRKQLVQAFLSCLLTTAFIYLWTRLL
T2 sequence (P11712 whole entry, the tested form may be a part): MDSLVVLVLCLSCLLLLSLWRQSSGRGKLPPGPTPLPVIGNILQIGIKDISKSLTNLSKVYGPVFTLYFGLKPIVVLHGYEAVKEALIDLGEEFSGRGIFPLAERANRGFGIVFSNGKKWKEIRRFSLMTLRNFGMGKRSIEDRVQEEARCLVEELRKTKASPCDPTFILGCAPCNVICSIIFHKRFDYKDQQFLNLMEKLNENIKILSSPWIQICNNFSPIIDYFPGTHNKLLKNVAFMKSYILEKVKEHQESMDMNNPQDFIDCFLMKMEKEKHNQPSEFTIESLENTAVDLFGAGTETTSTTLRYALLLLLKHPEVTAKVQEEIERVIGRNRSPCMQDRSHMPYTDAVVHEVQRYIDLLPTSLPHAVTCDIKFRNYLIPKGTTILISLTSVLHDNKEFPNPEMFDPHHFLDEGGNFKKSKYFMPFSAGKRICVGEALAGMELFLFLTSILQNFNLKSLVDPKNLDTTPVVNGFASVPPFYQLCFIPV
Protein Rev, sequence (P04618 whole entry): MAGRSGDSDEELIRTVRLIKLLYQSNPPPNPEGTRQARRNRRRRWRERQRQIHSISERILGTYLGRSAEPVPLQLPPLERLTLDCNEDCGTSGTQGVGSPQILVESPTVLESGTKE
Female germline-specific tumor suppressor gld-1, sequence (Q17339 whole entry): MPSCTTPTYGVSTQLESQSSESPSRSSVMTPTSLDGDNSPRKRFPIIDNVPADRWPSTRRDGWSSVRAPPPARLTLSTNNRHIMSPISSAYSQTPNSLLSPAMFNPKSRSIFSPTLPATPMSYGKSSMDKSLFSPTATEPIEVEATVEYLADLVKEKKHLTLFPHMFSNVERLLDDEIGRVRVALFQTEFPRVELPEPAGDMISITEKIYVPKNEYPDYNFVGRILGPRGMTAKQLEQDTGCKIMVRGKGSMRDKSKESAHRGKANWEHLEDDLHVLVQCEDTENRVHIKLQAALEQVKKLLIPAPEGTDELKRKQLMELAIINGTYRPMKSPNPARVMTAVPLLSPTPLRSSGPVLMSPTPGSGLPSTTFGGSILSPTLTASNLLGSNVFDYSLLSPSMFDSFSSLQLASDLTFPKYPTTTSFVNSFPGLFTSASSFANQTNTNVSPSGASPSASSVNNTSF
DNA dC->dU-editing enzyme APOBEC-3G, sequence (Q9HC16 whole entry): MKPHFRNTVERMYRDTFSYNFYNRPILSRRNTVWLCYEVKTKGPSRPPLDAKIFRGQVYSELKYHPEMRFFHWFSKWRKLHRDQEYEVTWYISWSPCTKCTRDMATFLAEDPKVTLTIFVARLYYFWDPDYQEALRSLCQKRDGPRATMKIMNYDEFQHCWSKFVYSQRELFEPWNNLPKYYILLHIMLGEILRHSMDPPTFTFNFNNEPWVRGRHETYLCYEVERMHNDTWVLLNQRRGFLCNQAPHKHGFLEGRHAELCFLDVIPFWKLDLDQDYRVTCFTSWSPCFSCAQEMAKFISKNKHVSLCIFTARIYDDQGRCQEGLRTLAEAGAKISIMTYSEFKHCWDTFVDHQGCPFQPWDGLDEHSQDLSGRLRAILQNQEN
Cytochrome P450 2C19, sequence (P33261 whole entry): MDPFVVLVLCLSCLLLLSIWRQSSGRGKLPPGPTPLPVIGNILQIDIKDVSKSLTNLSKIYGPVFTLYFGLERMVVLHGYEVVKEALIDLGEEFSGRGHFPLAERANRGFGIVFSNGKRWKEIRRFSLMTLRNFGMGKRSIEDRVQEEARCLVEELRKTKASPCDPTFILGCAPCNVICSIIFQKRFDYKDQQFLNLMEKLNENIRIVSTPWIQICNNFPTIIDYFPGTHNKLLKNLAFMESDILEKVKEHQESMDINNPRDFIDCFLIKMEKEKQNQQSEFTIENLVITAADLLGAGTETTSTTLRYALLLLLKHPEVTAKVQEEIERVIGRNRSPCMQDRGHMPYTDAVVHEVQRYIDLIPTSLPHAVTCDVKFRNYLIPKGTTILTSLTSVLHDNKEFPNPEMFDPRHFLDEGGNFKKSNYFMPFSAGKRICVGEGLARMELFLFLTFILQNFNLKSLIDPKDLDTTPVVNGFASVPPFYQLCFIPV
Nonstructural protein 1, sequence (Q194T2 whole entry): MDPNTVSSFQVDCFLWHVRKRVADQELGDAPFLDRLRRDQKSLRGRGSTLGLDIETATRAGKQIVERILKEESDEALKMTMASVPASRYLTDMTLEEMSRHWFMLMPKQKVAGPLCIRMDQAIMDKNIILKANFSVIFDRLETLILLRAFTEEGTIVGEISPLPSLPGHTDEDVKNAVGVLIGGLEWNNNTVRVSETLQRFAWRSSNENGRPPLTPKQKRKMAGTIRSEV
E3 ubiquitin-protein ligase XIAP, sequence (P98170 whole entry): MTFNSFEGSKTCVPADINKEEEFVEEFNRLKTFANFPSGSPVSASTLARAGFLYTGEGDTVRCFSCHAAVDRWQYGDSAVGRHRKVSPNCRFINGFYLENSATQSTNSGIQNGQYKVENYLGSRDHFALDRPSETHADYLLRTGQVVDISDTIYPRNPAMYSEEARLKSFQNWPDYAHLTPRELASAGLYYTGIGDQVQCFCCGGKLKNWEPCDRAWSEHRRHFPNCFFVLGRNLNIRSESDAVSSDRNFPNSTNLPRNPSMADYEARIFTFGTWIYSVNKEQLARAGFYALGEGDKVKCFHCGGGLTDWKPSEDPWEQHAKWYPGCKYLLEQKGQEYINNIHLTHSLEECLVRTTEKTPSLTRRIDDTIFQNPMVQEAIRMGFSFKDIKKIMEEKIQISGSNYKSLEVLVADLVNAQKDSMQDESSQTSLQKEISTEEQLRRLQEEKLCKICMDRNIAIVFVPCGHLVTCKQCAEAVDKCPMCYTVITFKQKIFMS
Eukaryotic translation initiation factor 4E, sequence (P63073 whole entry): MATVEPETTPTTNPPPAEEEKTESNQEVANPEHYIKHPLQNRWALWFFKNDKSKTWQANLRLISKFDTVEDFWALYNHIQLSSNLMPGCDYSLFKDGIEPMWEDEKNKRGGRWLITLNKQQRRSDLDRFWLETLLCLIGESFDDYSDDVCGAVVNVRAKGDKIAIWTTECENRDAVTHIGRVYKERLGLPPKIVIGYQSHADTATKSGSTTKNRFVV
DNA dC->dU-editing enzyme APOBEC-3A, sequence (P31941 whole entry): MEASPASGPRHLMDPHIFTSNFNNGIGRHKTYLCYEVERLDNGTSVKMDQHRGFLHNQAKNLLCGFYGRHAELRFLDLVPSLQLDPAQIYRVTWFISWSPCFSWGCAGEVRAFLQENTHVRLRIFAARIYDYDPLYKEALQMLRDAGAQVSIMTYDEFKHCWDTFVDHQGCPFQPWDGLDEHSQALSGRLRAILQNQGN

Cc1ccc[n+](CC(=O)c2ccccc2)c1
IC50 [1]: > 100 µM (inactive)
IC50 [2]: 5.7 µM (active)

C[N+]1(CC(O)c2ccccc2)CCCCCC1 (stereo not drawn)
IC50 [3]: 4.26 µM (active)
IC50 [4]: 2.71 µM (active)
IC50 [1]: 60.9 µM (active)
IC50 [2]: 5.42 µM (active)

COc1ccc(-c2coc3c(CN4CCCCC4)c(O)c(CN4CCCCC4)c(O)c3c2=O)cc1
IC50 [5]: 79.7 µM (inactive)
EC50 [6]: 32.6 µM (active)
EC50 [7]: 34.4 µM (active)

CC(C)[C@@H](CC(=O)N[C@@H]1CCNC[C@H]1C(=O)N[C@H](CC(=O)N[C@@H](CCC(=O)O)CC(=O)O)Cc1c[nH]c2ccccc12)NC(=O)C[C@H](CO)NC(=O)[C@@H]1CNCC[C@H]1N
AC50 [8]: 39.8 µM (inconclusive)

CN(C(=O)CN1C(=O)c2cccc(N)c2C1=O)C1CCCCC1
IC50 [9]: 32.6 µM (inactive)
IC50 [10]: > 66 µM (inactive)
IC50 [11]: 4.29 µM (active)
IC50 [12]: > 8.39 µM (active)

O=C(COC(=O)CC12CC3CC(CC(C3)C1)C2)Nc1ncc(Cl)cc1Cl
IC50 [5]: 40.2 µM (active)

Cc1ccccc1NC(=O)NCCCN1CCCC1
EC50 [13]: > 55.7 µM (not active)
EC50 [14]: > 55.7 µM (not active)

O=C(Cn1cnc([N+](=O)[O-])n1)N/N=C/c1ccccc1O
EC50 [13]: > 55.7 µM (not active)
EC50 [14]: > 55.7 µM (not active)
AC50 [15]: inconclusive
IC50 [16]: 9.05 µM (active)
AC50 [17]: 10 µM (inconclusive)

CC(=O)N(/N=C/c1ccc([N+](=O)[O-])o1)c1nc2ccccc2c(=O)n1-c1ccccc1
IC50 [18]: > 119 µM (inactive)
IC50 [19]: 45.9 µM (inactive)

Nc1ccc(O)c2c1C(=O)c1ccccc1C2=O
AC50 [20]: 79.2 µM (active)
IC50 [21]: < 0.313 µM (active)
IC50 [9]: 24.3 µM (inactive)
EC50 [22]: 39 µM (active)
IC50 [23]: 25.7 µM (active)
IC50 [24]: 4.35 µM (active)
IC50 [10]: > 66 µM (inactive)
IC50 [11]: 3.05 µM (active)
IC50 [12]: > 75.4 µM (not active)
